Reference: patent publication US6534523B1, “Hepatitis C inhibitor tri-peptides” (Boehringer Ingelheim (Canada) Ltd., priority 1998, dated 2003)

Legend:
[1] = biological target: T1, HCV NS3 protease type 1b / NS4A cofactor peptide (Hepatitis C virus genotype 1b, UniProt P26663); assay: Recombinant HCV NS3 protease/NS4A cofactor peptide radiometric assay (Example 37); format: biochemical, HCV genotype 1b
T1 construct: recombinant HCV NS3 protease (amino acid 1027 to 1206) was cloned in the pET11d bacterial expression vector; made in house; host or cells: E. coli BL21(DE3)pLysS
Protocol: Recombinant HCV NS3 Protease/NS4A Cofactor Peptide Radiometric Assay
The enzyme was cloned, expressed and prepared according to the protocol described in Example 36. The enzyme was stored at −80° C., thawed on ice and diluted just prior to use in the assay buffer containing the NS4A cofactor peptide.
The substrate used for the NS3 protease/NS4A cofactor peptide radiometric assay, DDIVPC-SMSYTW, is cleaved between the cysteine and the serine residues by the enzyme. The sequence DDIVPC-SMSYTW corresponds to the NS5A/NS5B natural cleavage site in which the cysteine residue in P2 has been substituted for a proline. The peptide substrate DDIVPC-SMSYTW and the tracer biotin-DDIVPC-SMS[^125I-Y]TW are incubated with the recombinant NS3 protease and the NS4A peptide cofactor […] (molar ratio enzyme:cofactor 1:100) in the absence or presence of inhibitors. The separation of substrate from products is performed by adding avidin-coated agarose beads to the assay mixture followed by filtration. The amount of SMS[^125I-Y]TW product found in the filtrate allows for the calculation of the percentage of substrate conversion and of the percentage of inhibition.
Tris and Tris-HCl (UltraPure) were obtained from Gibco-BRL. […]
The filtrates were counted on a Packard TopCount instrument using a ^125I-liquid protocol for 1 minute.
The % inhibition was calculated with the following equation: […]

[2] = biological target: T2, human liver cathepsin B (Cat B) (Homo sapiens, UniProt P07858); assay: Specificity assay (Example 40), human liver cathepsin B; format: biochemical
T2 construct: from tissue; host or cells: human liver
Protocol: The specificity of the compounds was determined against a variety of serine proteases: human leukocyte elastase, porcine pancreatic elastase and bovine pancreatic α-chymotrypsin and one cysteine protease: human liver cathepsin B. In all cases a 96-well plate format protocol using a calorimetric p-nitroaniline (pNA) substrate specific for each enzyme was used. Each assay included a 1 h enzyme-inhibitor pre-incubation at 30° C. followed by addition of substrate and hydrolysis to ≈30% conversion as measured on a UV Thermomax® microplate reader. Substrate concentrations were kept as low as possible compared to KM to reduce substrate competition. Compound concentrations varied from 300 to 0.06 μM depending on their potency.
The final conditions for each assay were as follows:
[100 mM NaHPO4 pH 6, 0.1 mM EDTA, 3% DMSO, 1 mM TCEP, 0.01% Tween-20, 30 μM Z-FR-pNA and 5 nM cathepsin B (the stock enzyme was activated in buffer containing 20 mM TCEP before use)].
The sequential 2-fold dilutions of the inhibitor solution were performed on a separate plate by the liquid handler using 50 mM Tris-HCl pH 8, 50 mM NaCl, 0.1 mM EDTA, 0.02% Tween-20, 15% DMSO. All other specificity assays were performed in a similar fashion.
The percentage of inhibition was calculated using the formula:
[1-((UVinh−UVblank)/(UVctl−UVblank))]×100 […]

T1 sequence (P26663 1027-1206, other chains not shown): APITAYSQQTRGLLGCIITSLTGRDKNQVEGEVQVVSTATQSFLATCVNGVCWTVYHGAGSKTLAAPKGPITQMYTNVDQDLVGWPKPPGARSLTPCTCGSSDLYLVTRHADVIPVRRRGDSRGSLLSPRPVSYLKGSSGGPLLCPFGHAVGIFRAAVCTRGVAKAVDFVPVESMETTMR

Compound `C=C[C@@H]1C[C@]1(NC(=O)[C@@H]1C[C@@H](Oc2cc(-c3ccccc3)nc3cc(OC)ccc23)CN1C(=O)[C@@H](NC(=O)OC(C)(C)C)C(C)C)C(=O)O` [compound 601] has an IC50 [1] of 50 nM and an IC50 [2] of over 75 µM.
